Results published in US20250206732A1, “COMPOUNDS AND METHODS FOR THE TARGETED DEGRADATION OF KRAS” (Arvinas Operations, Inc., priority 2022, published 2025).

Target: T1, AsPC-1 HiBiT-KRASG12D (Homo sapiens, UniProt P01116, G12D)
T1 construct: insert the HiBiT tag onto the N-terminus of one or more of the endogenous KRAS alleles; endogenous in cells; host or cells: AsPC-1 (ATCC CRL-1682), CRISPR-Cas9 knock-in clone, one tagged allele
Assay: HiBiT degradation assay (G12D), AsPC-1 HiBiT-KRASG12D cells
Assay type: cell-based
Conditions: 24 hours treatment; for Dmax: ASPC1, AsPC-1 HiBiT-KRASG12D cells, maximum degradation observed; for DC50: AsPC-1 HiBiT-KRASG12D cells, HiBiT luminescence
In short: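 AsPC-1 cells carried a CRISPR knock-in of an N-terminal HiBiT tag on endogenous KRAS G12D. After 24 h compound treatment at 37 °C (triplicate), viability was read by alamar blue (4 h, fluorescence, normalized to DMSO). HiBiT-KRAS levels were then measured by Nano-Glo HiBiT lytic luminescence after 45 min at room temperature.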

T1 sequence (P01116 1-188 isoform P01116-2 G12D): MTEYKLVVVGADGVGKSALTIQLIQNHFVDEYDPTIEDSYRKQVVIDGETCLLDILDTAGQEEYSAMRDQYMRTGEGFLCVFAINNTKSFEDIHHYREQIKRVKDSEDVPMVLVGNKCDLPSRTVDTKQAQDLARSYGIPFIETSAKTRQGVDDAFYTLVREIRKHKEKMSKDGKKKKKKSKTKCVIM

Structure (SMILES)	Dmax	DC50
CCc1cccc2cc(O)cc(-c3ncc4c(N5CC6CCC(C5)N6)nc(OC[C@]56CCCN5C[C@H](Oc5cc([C@@H](C(=O)N7C[C@H](O)C[C@H]7C(=O)N[C@@H](C)c7ccc(-c8scnc8C)cc7)C(C)C)on5)CC6)nc4c3F)c12 [Compound 319, (2S,4R)-1-[(2S)-2-[3-[[(6R,8aR)-8a-[[4-(3,8-diazabicyclo[3.2.1]octan-3-yl)-7-(8-ethyl-3-hydroxy-1-naphthyl)-8-fluoro-pyrido[4,3-d]pyrimidin-2-yl]oxymethyl]-2,3,5,6,7,8-hexahydro-1H-indolizin-6-yl]oxy]isoxazol-5-yl]-3-methyl-butanoyl]-4-hydroxy-N-[(1S)-1-[4-(4-methylthiazol-5-yl)phenyl]ethyl]pyrrolidine-2-carboxamide]	60 to 80%	1000 to 3000 nM
CCc1cccc2cc(O)cc(-c3ncc4c(N5CC6CCC(C5)N6)nc(OC[C@]56CCCN5[C@H](COC(=O)N5CC(Oc7cc([C@@H](C(=O)N8C[C@H](O)C[C@H]8C(=O)N[C@@H](C)c8ccc(-c9scnc9C)cc8)C(C)C)on7)C5)CC6)nc4c3F)c12 [Compound 129, [(3S,7aR)-7a-{[(4-{3,8-diazabicyclo[3.2.1]octan-3-yl}-7-(8-ethyl-3-hydroxynaphthalen-1-yl)-8-fluoropyrido[4,3-d]pyrimidin-2-yl)oxy]methyl}-hexahydro-1H-pyrrolizin-3-yl]methyl 3-({5-[(2S)-1-[(2S,4R)-4-hydroxy-2-{[(1S)-1-[4-(4-methyl-1,3-thiazol-5-yl)phenyl]ethyl]carbamoyl}pyrrolidin-1-yl]-3-methyl-1-oxobutan-2-yl]-1,2-oxazol-3-yl}oxy)azetidine-1-carboxylate]	60 to 80%	< 600 nM
CCc1cccc2cc(O)cc(-c3ncc4c(N5CCCCCC5)nc(OC[C@]56CCCN5[C@H](COC(=O)N5CCC(Oc7cc([C@H](C(=O)N8C[C@H](O)C[C@H]8C(=O)N[C@@H](C)c8ccc(-c9scnc9C)cc8)C(C)C)on7)CC5)CC6)nc4c3F)c12 [Compound 286, [(3S,8R)-8-[[4-(azepan-1-yl)-7-(8-ethyl-3-hydroxy-1-naphthyl)-8-fluoro-pyrido[4,3-d]pyrimidin-2-yl]oxymethyl]-1,2,3,5,6,7-hexahydropyrrolizin-3-yl]methyl 4-[5-[(1R)-1-[(2S,4R)-4-hydroxy-2-[[(1S)-1-[4-(4-methylthiazol-5-yl)phenyl]ethyl]carbamoyl]pyrrolidine-1-carbonyl]-2-methyl-propyl]isoxazol-3-yl]oxypiperidine-1-carboxylate]	80 to 100%	< 600 nM
CCc1cccc2cc(O)cc(-c3ncc4c(N5CC6CCC(C5)N6)nc(OC[C@@]56CCCN5[C@H](CN5CCC(F)(COc7cc([C@H](C(=O)N8C[C@H](O)C[C@H]8C(=O)N[C@@H](C)c8ccc(-c9scnc9C)cc8)C(C)C)on7)CC5)CC6)nc4c3F)c12 [Compound 335, (2S,4R)-1-[(2R)-2-[3-[[1-[[(3S,8S)-8-[[4-(3,8-diazabicyclo[3.2.1]octan-3-yl)-7-(8-ethyl-3-hydroxy-1-naphthyl)-8-fluoro-pyrido[4,3-d]pyrimidin-2-yl]oxymethyl]-1,2,3,5,6,7-hexahydropyrrolizin-3-yl]methyl]-4-fluoro-4-piperidyl]methoxy]isoxazol-5-yl]-3-methyl-butanoyl]-4-hydroxy-N-[(1S)-1-[4-(4-methylthiazol-5-yl)phenyl]ethyl]pyrrolidine-2-carboxamide]	80 to 100%	< 600 nM
C#Cc1c(F)ccc2cc(O)cc(-c3ncc4c(N5CC6CCC(C5)N6)nc(OCCN5CCC6(CC5)CN(c5cc(C(C(=O)N7C[C@H](O)C[C@H]7C(=O)N[C@@H](C)c7ccc(-c8ccnn8C)cc7)C(C)C)on5)C6)nc4c3F)c12 (single isomer, unassigned) [Compound 83, (2S,4R)-1-[(2R*)-2-[3-(7-{2-[(4-{3,8-diazabicyclo[3.2.1]octan-3-yl}-7-(8-ethynyl-7-fluoro-3-hydroxynaphthalen-1-yl)-8-fluoropyrido[4,3-d]pyrimidin-2-yl)oxy]ethyl}-2,7-diazaspiro[3.5]nonan-2-yl)-1,2-oxazol-5-yl]-3-methylbutanoyl]-4-hydroxy-N-[(1S)-1-[4-(1-methyl-1H-pyrazol-5-yl)phenyl]ethyl]pyrrolidine-2-carboxamide]	80 to 100%	< 600 nM
C#Cc1c(F)ccc2cc(O)cc(-c3ncc4c(N5CC6CCC(C5)N6)nc(OC[C@]56CCCN5[C@H](COC(=O)N5CC(Oc7cc([C@H](C(=O)N8C[C@H](O)C[C@H]8C(=O)N[C@@H](C)c8ccc(-c9scnc9C)cc8)C(C)C)on7)C5)CC6)nc4c3F)c12 [Compound 292]	80 to 100%	< 600 nM
CCc1cccc2cc(O)cc(-c3ncc4c(N5CCCCCC5)nc(OC[C@]56CCCN5[C@H](COC(=O)N5CC(Oc7cc([C@@H](C(=O)N8C[C@H](O)C[C@H]8C(=O)N[C@@H](C)c8ccc(-c9scnc9C)cc8)C(C)C)on7)C5)CC6)nc4c3F)c12 [Compound 305]	20 to 60%	600 to 1000 nM
Cc1ncsc1-c1ccc([C@H](C)NC(=O)[C@@H]2C[C@@H](O)CN2C(=O)[C@@H](c2cc(OC[C@@H]3CC[C@]4(COc5nc(N6CC7CCC(C6)N7)c6cnc(-c7cc(O)cc(Cl)c7C7CC7)c(F)c6n5)CCCN34)no2)C(C)C)cc1 [Compound 64, (2S,4R)-1-[(2R)-2-(3-{[(3S,7aS)-7a-({[7-(3-chloro-2-cyclopropyl-5-hydroxyphenyl)-4-{3,8-diazabicyclo[3.2.1]octan-3-yl}-8-fluoropyrido[4,3-d]pyrimidin-2-yl]oxy}methyl)-hexahydro-1H-pyrrolizin-3-yl]methoxy}-1,2-oxazol-5-yl)-3-methylbutanoyl]-4-hydroxy-N-[(1S)-1-[4-(4-methyl-1,3-thiazol-5-yl)phenyl]ethyl]pyrrolidine-2-carboxamide]	20 to 60%	< 600 nM
CCc1cccc2cc(O)cc(-c3ncc4c(N5CC6CCC(C5)N6)nc(OC5CCN(CC6CCN(c7cc([C@H](C(=O)N8C[C@H](O)C[C@H]8C(=O)N[C@@H](C)c8ccc(-c9scnc9C)cc8)C(C)C)on7)CC6)CC5)nc4c3F)c12 [Compound 166, (2S,4R)-1-[(2R)-2-{3-[4-({4-[(4-{3,8-diazabicyclo[3.2.1]octan-3-yl}-7-(8-ethyl-3-hydroxynaphthalen-1-yl)-8-fluoropyrido[4,3-d]pyrimidin-2-yl)oxy]piperidin-1-yl}methyl)piperidin-1-yl]-1,2-oxazol-5-yl}-3-methylbutanoyl]-4-hydroxy-N-[(1S)-1-[4-(4-methyl-1,3-thiazol-5-yl)phenyl]ethyl]pyrrolidine-2-carboxamide]	20 to 60%	< 600 nM
C#Cc1c(F)ccc2cc(O)cc(-c3ncc4c(N5CC6CCC(C5)N6)nc(OCCN5CCC(F)(COc6cc([C@H](C(=O)N7C[C@H](O)C[C@H]7C(=O)N[C@@H](C)c7ccc(-c8scnc8C)cc7)C(C)C)on6)CC5)nc4c3F)c12 [Compound 153, (2S,4R)-1-[(2R)-2-{3-[(1-{2-[(4-{3,8-diazabicyclo[3.2.1]octan-3-yl}-7-(8-ethynyl-7-fluoro-3-hydroxynaphthalen-1-yl)-8-fluoropyrido[4,3-d]pyrimidin-2-yl)oxy]ethyl}-4-fluoropiperidin-4-yl)methoxy]-1,2-oxazol-5-yl}-3-methylbutanoyl]-4-hydroxy-N-[(1S)-1-[4-(4-methyl-1,3-thiazol-5-yl)phenyl]ethyl]pyrrolidine-2-carboxamide]	80 to 100%	< 600 nM
CCc1cccc2cc(O)cc(-c3ncc4c(N5CC6CCC(C5)N6)nc(OCCN5C[C@@H]6CN(c7cc(C(C(=O)N8C[C@H](O)C[C@H]8C(=O)N[C@@H](C)c8ccc(-c9scnc9C)cc8)C(C)C)on7)C[C@@H]6C5)nc4c3F)c12 (single isomer, unassigned) [Compound 79, (2S,4R)-1-[(2R*)-2-{3-[(3aR,6aS)-5-{2-[(4-{3,8-diazabicyclo[3.2.1]octan-3-yl}-7-(8-ethyl-3-hydroxynaphthalen-1-yl)-8-fluoropyrido[4,3-d]pyrimidin-2-yl)oxy]ethyl}-octahydropyrrolo[3,4-c]pyrrol-2-yl]-1,2-oxazol-5-yl}-3-methylbutanoyl]-4-hydroxy-N-[(1S)-1-[4-(4-methyl-1,3-thiazol-5-yl)phenyl]ethyl]pyrrolidine-2-carboxamide]	80 to 100%	< 600 nM
CCc1cccc2cc(O)cc(-c3ncc4c(N5CC6CCC(C5)N6)nc(OCCN5CCC(F)(CC6CCN(c7cc([C@@H](C(=O)N8C[C@H](O)C[C@H]8C(=O)N[C@@H](C)c8ccc(-c9scnc9C)cc8)C(C)C)on7)CC6)CC5)nc4c3F)c12 [Compound 240]	–	> 3000 nM
CCc1cccc2cc(O)cc(-c3ncc4c(N5CC6CCC(C5)N6)nc(OCCN5CCC(CC6CCN(c7cc([C@@H](C(=O)N8C[C@H](O)C[C@H]8C(=O)N[C@@H](C)c8ccc(-c9ccnn9C)cc8)C(C)C)on7)CC6)CC5)nc4c3F)c12 [Compound 210, (2S,4R)-1-[(2S)-2-(3-{4-[(1-{2-[(4-{3,8-diazabicyclo[3.2.1]octan-3-yl}-7-(8-ethyl-3-hydroxynaphthalen-1-yl)-8-fluoropyrido[4,3-d]pyrimidin-2-yl)oxy]ethyl}piperidin-4-yl)methyl]piperidin-1-yl}-1,2-oxazol-5-yl)-3-methylbutanoyl]-4-hydroxy-N-[(1S)-1-[4-(1-methyl-1H-pyrazol-5-yl)phenyl]ethyl]pyrrolidine-2-carboxamide]	20 to 60%	600 to 1000 nM
